Patent US9546129B2, “DTPA prodrugs, compositions thereof, and methods of using the same” (priority 2012, dated 2017)
≈ marks a conversion by molar mass, not a printed value. Read-outs that look alike come from different tables or passages of the source.

Columns and labels:
[1] = Precipitation / solubility study in pH 3.0 buffer; format: physicochemical
Description: A precipitation study was performed to estimate the concentration at which no precipitation occurs. Initially, 12 samples of C2E2 were prepared at concentrations ranging from 40-150 mg/mL in pH 3.0 buffer in steps of 10 mg/mL. The solutions were left to stir until precipitation occurred.
Three samples of C2E2 at 60, 70 and 100 mg/mL in pH 3.0 buffer were prepared and stirred at room temperature. At 0.083, […], 1, 2, 4, 6, 20, 24 and 44 hours 0.5 mL samples were withdrawn centrifuged at 14,000×g and the concentration of supernatant measured by HPLC-CAD. At each time-point the pH of the supernatant was also measured.

[2] = 10-day repeat-dose toxicity and toxicokinetics study in dogs; format: in vivo, Beagle dog; conditions: for AUC(0-t) / Cmax: plasma, po, 200 mg/kg/day, after 10 days of dosing; for AUC(0-t): read-out: C2E2 AUC0-24; for Cmax: read-out: Mean C2E2 Cmax
Description: An exploratory study was conducted to evaluate the toxicity and to determine the toxicokinetics of the test article, C2E2, when administered to dogs via 10 daily oral gavage doses. Groups of 2 Beagle dogs/sex were administered C2E2 via oral gavage at dose levels of 0, 60, 200, 400, or 600 mg/kg. The vehicle was reverse osmosis water and the dose volume was 8 mL/kg. Assessment of toxicity was based on mortality, clinical observations, body weight, food consumption, clinical pathology, gross pathology, organ weights, histopathology of selected tissues, and plasma essential trace elements analysis. Blood samples were collected on Days 1 and 10 for toxicokinetic evaluations of C2E2, C2E1, DTPA and C2E3. C2E3 is believed to be an impurity in the C2E2 lot used.

[3] = Stability of C2E2 in plasma (human); format: in vitro ADME; conditions: 37° C.
Description: (§1) Prior to the study, 975 μL of plasma (Rat, Beagle and Human) was preheated to 37° C. in Eppendorff tubes and the test compound (C2E2) was prepared in DI water (10 mg/mL). The C2E2 was from Lot 050 obtained using Method 2. To initiate the study, 25 μL of the C2E2 solution was added to the pre-heated plasma and briefly vortexed, to mix. At 0, 15, 30, 60 and 120 minutes a 100 μL sample of plasma was taken, an equal volume of cold acetonitrile was added and mixed to precipitate plasma proteins. Samples were centrifuged at 4° C. and 14,000×g for 10 minutes to remove precipitated proteins, the supernatant was collected and the C2E2 concentration determined by HPLC-CAD. All conditions were repeated in triplicate.
(§2) HPLC Detection Methods: C2E2 analysis was performed on a prominence HPLC (Shimadzu Corporation, Kyoto, Japan) equipped with a Corona Ultra charged […] detector (CAD) (Thermo scientific, Sunnyvale, Calif.). […]
(§3) The gradient is 0.01-34.99 min: 22% B; 35.00-44.99 min: 33% B; 45.00-60.00 min: 38% B. The flow rate is 1.0 mL/min, a Thermo Hypersil ODS column (150 mm 4.6 mm i.d. with 5.0 μm particles) will be used, injection volume will be 10 μL and column oven temperature maintained at 25° C. […] The limit of quantification is 0.35 μg/mL. […]

[4] = Gadolinium complex stability constant by titration; format: binding; conditions: 3-5 mM in 0.1 M KCl, equimolar gadolinium chloride
Description: The stability constant for a complex between C2E2 and gadolinium (i.e., the C2E2-Gd complex) was determined by titration. C2E2 solutions (3-5 mM) were prepared in 0.1 M KCl. Gadolinium chloride was added in equimolar concentrations. The experiment consisted of a titration with base, followed by a titration with acid. After each addition of titrant, a 30 second equilibration time passed before pH measurement with a Seven Easy pH meter and (Ag/AgCl reference) glass electrode (Metler Tolledo). The pKa values previously determined, as described in Example 9, were used to calculate the gadolinium stability constant using […] software. The stability of the C2E2-Gd complex was log K 17.34±1.13, which lies between those of EDTA and DTPA (17.0 and 22.5, respectively).

[5] = Stability of C2E2 in plasma (Beagle); format: in vitro ADME, dog; conditions: 37° C., up to two hours
Description: as §1, §2, §3

CCOC(=O)CN(CCN(CCN(CC(=O)O)CC(=O)OCC)CC(=O)O)CC(=O)O [C2E2, 6,9-bis(carboxymethyl)-3-(2-ethoxy-2-oxoethyl)-11-oxo-12-oxa-3,6,9-triazatetradecan-1-oic acid]
Time of sudden precipitation from supersaturated solution ([1]; 100 mg/ml in pH 3.0 buffer, stirred at room temperature): 20 to 24 h | solubility ([1]; Lot 050, solutions at this concentration precipitated over time, read-out: Solubility, initially determined): 100 mg/mL (≈ 222 mM) | solubility ([1]; aqueous buffer, thermodynamic from solid, pH 3.0 buffer, room temperature, read-out: Solubility at pH 3.0): 60 to 70 mg/mL (≈ 133 to 156 mM) | C2E2 concentration above which precipitation was observed ([1]; pH 3.0 buffer, 24 hours stirring then 48 hours standing at room temperature): above 60 mg/mL | C2E2 concentration above which precipitation was observed ([1]; pH 3.0 buffer, after 24 hours stirring): above 90 mg/mL | Dose proportionality of mean Cmax and AUC0-24 ([2]; 60 to 600 mg/kg/day): not consistently dose proportional | Maximum-tolerated dose (statement) ([2]; 400 and 600 mg/kg/day, early sacrifices): exceeded the maximum-tolerated dose | NOAEL at 10 days ([2]; both sexes, Beagle, dog, in vivo, dogs, oral gavage, 10 days, read-out: No observed adverse effect level (NOAEL)): 200 mg/kg/day | Accumulation after multiple dosing ([2]; dogs, 10 daily doses): No accumulation | Sex differences in C2E2 mean Cmax and AUC0-24 ([2]; dogs, 60-600 mg/kg/day): less than 2 fold | Dose at which liver and kidney were target organs of toxicity ([2]; dogs, 10 days): ≥ 400 mg/kg/day | Dose with clinical chemistry changes consistent with hepatotoxicity ([2]; dogs, 10 days): ≥ 400 mg/kg/day | Dose with test article related clinical observations (vomitus/emesis, fecal abnormalities) ([2]; dogs, 10 days): ≥ 200 mg/kg/day | AUC(0-t) ([2]; female, Beagle, dog, females): 184 µg·h/mL | Cmax ([2]; female, Beagle, dog, females): 72 µg/mL | Dose with dose-dependent body weight loss ([2]; females): ≥ 400 mg/kg/day | AUC(0-t) ([2]; male, Beagle, dog, males): 151 µg·h/mL | Cmax ([2]; male, Beagle, dog, males): 59.5 µg/mL | Dose with dose-dependent body weight loss ([2]; males): ≥ 200 mg/kg/day | Dose with hepatocyte degeneration/necrosis and mixed cell inflammation ([2]; males, terminal sacrifice): ≥ 200 mg/kg/day | Mortality / early sacrifice ([2]; one male 600 mg/kg/day, one male 400 mg/kg/day): Two animals were sacrificed early due to moribund condition | Essential trace elements in plasma (Cr, Co, Cu, Fe, Mg, Mn, Mo, Se, Zn) ([2]; repeated doses up to 600 mg/kg/day for 10 days): No test article-related depletion of essential trace elements in plasma | C2E2 remaining ([3]; after 2 hours): approximately 90% | Metabolism in plasma (observation) ([3]; up to two hours): minimal or not detected | Stability of the gadolinium complex, log K [4]: 17.34±1.13 | Metabolism in plasma (observation) [5]: minimal or not detected
